This is an account of results in publication PMC3555856, “In vitro α-glucosidase inhibitory activity of phenolic constituents from aerial parts of Polygonum hyrcanicum” (DARU Journal of Pharmaceutical Sciences, 2012).

Where two headings read alike, the source gives them in different places.

Experiment [1] deals with T1, α-glucosidase (EC 3.2.1.20, from baker's yeast) (Saccharomyces cerevisiae, UniProt P53341).
T1 construct: purchased Sigma-Aldrich Chemie (Germany)
The experiment in a line: biochemical. The conditions noted are these: pH 6.9, 37°C. As to the method:
Column chromatography was carried out using silica gel (230–400 mesh) obtained from Merck (Germany), RP-18 (230–400 mesh) and Sephadex LH-20 procured from Fluka (Switzerland). Pre-coated silica gel 60 F254 plates and silica gel 60 RP-18 F254S plates (Merck, Germany) were used for TLC. Spots were observed under UV at 254 and 366 nm and spraying with anisaldehyde-H2SO4 reagent (Sigma-Aldrich Chemie, Germany) and heating at 120°C for 5 min. HPLC separations were performed on a Knauer Wellchrom system connected to a photodiode array detector (Smart line system, Germany). ^1H and ^13C NMR spectra were measured on a Bruker Avance DRX 500 spectrometer operating at 500 MHz for ^1H and 125 MHz for ^13C using a 5 mm PABBO probehead. α-glucosidase (EC 3.2.1.20, from baker’s yeast, 77 U/mg), p-nitrophenyl-α-d-glucopyranoside, vitamin E 97% and 2, 2-diphenyl-picrylhydrazyl (DPPH) were obtained from Sigma-Aldrich Chemie (Germany). Sodium carbonate, FeCl3, sodium acetate, ferrous sulfate [FeSO4.7H2O], gallic acid, 2, 4, 6-tripyridyl-s-triazine (TPTZ) solution, and Folin-Ciocalteu reagent were all obtained from Merck (Germany).
α-Glucosidase inhibitory activities were evaluated according to the chromogenic method described by McCue et al. (2005), with some modifications. The enzyme solution contained 20 μl α-glucosidase (0.5 unit/ml) and 120 μl 0.1 M phosphate buffer (pH 6.9). p-Nitrophenyl-α-D-glucopyranoside (5 mM) in the same buffer (pH 6.9) was used as a substrate solution. Ten microliters of test samples, dissolved in DMSO at various concentrations, were mixed with enzyme solution in microplate wells and incubated for 15 min at 37°C. Twenty microliters of substrate solution were added and incubated for an additional 15 min. The reaction was terminated by adding 80 μl of 0.2 M sodium carbonate solution. Absorbance of the wells was measured with a microplate reader at 405 nm, while the reaction system without plant extracts was used as control. […] Each experiment was conducted in triplicate. The enzyme inhibitory rates of samples were calculated as follows:
Inhibition%=[(control absorption-sample absorption)/control absorption)]×100.
The IC50 values of samples were calculated and reported as the mean ± standard deviation (SD) of three experiments.

Experiment [2] in a line: FRAP assay (ferric-reducing ability). The conditions noted are these: 37°C, 10 minutes, 593 nm. As to the method: Antioxidant activities of plant extracts were evaluated by monitoring their ferric-reducing abilities. Freshly prepared FRAP reagent contained 5 ml FeCl3 (20 mM) plus 5 ml of a 10 mM TPTZ solution in 40 mM HCl and 50 ml of 300 mM acetate buffer (pH = 3.6). One hundred microliters of the samples, dissolved in methanol at various concentrations, were mixed with 3 ml FRAP reagent and incubated at 37°C for 10 minutes; the absorptions at 593 nm were recorded. A calibration curve was generated in the range of 125–750 μM ferrous sulfate (FeSO4.7H2O). Vitamin E was used as a positive control and the results were expressed as mmol ferrous ion equivalent per gram of extracts.

A short description of experiment [3]: DPPH free radical scavenging activity. The conditions noted are these: absorbance at 517 nm after 30 minutes. As to the method: The antioxidant activities of the extracts were determined with the DPPH assay according to an established protocol. Extract solutions of 500, 250, 100, and 50 μg/ml were prepared in methanol. Each test tube contained 1 ml of the samples and 2 ml freshly prepared DPPH solution of 40 μg/ml in methanol. […] Absorbance of the mixtures were recorded at 517 nm after 30 minutes, against the blank covets of DPPH solution. Vitamin E was used as a positive control. All samples were assayed in triplicate and IC50 values were calculated.
A general note: Loss of DPPH colour is used to gauge radical scavenging.

The mark [4] stands for this setting: mean ± SD of three experiments, read-out: α-Glucosidase inhibitory activity IC50.
The mark [5] stands for this setting: α-Glucosidase inhibitory activity IC50, mean ± SD of three experiments.

T1 sequence (P53341 whole entry): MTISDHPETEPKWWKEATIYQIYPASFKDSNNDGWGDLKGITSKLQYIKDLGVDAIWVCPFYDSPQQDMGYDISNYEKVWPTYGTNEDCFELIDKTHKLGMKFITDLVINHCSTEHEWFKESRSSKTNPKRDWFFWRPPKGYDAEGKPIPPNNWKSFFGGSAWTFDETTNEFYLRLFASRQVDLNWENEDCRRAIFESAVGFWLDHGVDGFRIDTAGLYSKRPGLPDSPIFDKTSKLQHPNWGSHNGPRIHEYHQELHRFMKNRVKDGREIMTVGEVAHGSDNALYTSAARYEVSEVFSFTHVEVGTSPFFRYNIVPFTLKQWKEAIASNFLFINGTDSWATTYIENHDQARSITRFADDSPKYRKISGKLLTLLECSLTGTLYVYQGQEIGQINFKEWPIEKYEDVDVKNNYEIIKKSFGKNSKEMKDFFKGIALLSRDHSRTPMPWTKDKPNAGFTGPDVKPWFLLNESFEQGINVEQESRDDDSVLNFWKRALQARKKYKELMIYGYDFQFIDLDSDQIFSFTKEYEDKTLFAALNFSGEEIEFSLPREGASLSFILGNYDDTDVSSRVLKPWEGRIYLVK

What is called IC50 is the concentration that gives 50% inhibition. With `Oc1cc(O)c2c(c1)OC(c1ccc(O)c(O)c1)C(O)C2` (single isomer, unassigned; (+)) [Compound 7, (+) catechin], in experiment [1] (setting [4]), the IC50 worked out at 6.6 ± 3.5 µM. As to `Oc1cc(O)c2c(c1)OC(c1cc(O)c(O)c(O)c1)C(O)C2` (single isomer, unassigned; (-)) [Compound 8, (-) gallocatechin], the IC50 in experiment [1] (setting [5]) came out at 1 ± 0.3 µM.

Regarding `O=c1c(O)c(-c2cc(O)c(O)c(O)c2)oc2cc(O)cc(O)c12` [Compound 2, myricetin], the IC50 in experiment [1] (setting [5]) came out at 1.3 ± 0.6 µM. In the case of `O=C(/C=C/c1ccc(O)c(O)c1)NCCc1ccc(O)cc1` [Compound 3, N-trans-caffeoyl-tyramine], the 50% inhibitory concentration (IC50) in experiment [1] (setting [4]) stood at 0.3 ± 0.3 µM.

In the case of `CC(=O)OC[C@@H]1O[C@@H](Oc2c(-c3ccc(O)c(O)c3)oc3cc(O)cc(O)c3c2=O)[C@H](O)[C@H]1OC(C)=O` [Compound 4, quercetin 3-O-α-L-(3",5"-diacetyl-arabinofuranoside)], the IC50 in experiment [1] (setting [4]) turned out to be 4.9 ± 1.5 µM. As for `CC(=O)OC1C(CO)OC(Oc2c(-c3ccc(O)c(O)c3)oc3cc(O)cc(O)c3c2=O)C1O` [Compound 5, quercetin 3-O-α-L-(3"-acetyl-arabinofuranoside)], the IC50 in experiment [1] (setting [4]) is 4.8 ± 1.9 µM. Turning to `CC(=O)OC[C@@H]1O[C@@H](Oc2c(-c3cc(O)c(O)c(O)c3)oc3cc(O)cc(O)c3c2=O)[C@H](O)[C@H]1OC(C)=O` [Compound 6, myricetin 3-O-α-L-(3",5"-diacetyl-arabinofuranoside)], the IC50 in experiment [1] (setting [4]) came to 5.8 ± 2.8 µM. Same read-out and setting: in the case of `O=c1c(OC2OC(CO)C(O)C(O)C2O)c(-c2cc(O)c(O)c(O)c2)oc2cc(O)cc(O)c12` [Compound 9, myricetin 3-O-β-D-galactopyranoside] it was 4.8 ± 0.8 µM. As for `O=c1c(O[C@@H]2O[C@@H](CO)[C@H](O)[C@H]2O)c(-c2cc(O)c(O)c(O)c2)oc2cc(O)cc(O)c12` [Compound 12, myricetin 3-O-α-L-arabinofuranoside], the IC50 in experiment [1] (setting [4]) worked out at 4.2 ± 2.9 µM. In turn, `O=c1c(O[C@@H]2O[C@@H](CO)[C@H](O)[C@H]2O)c(-c2ccc(O)c(O)c2)oc2cc(O)cc(O)c12` [Compound 13, quercetin 3-O-α-L-arabinofuranoside] returned an IC50 in experiment [1] (setting [5]) of 7.6 ± 0.9 µM. On to vitamin E, for which the FRAP assay in experiment [2] is recorded as 2.40 ± 0.76 mmol ferrous ion equivalent/g; in experiment [2] (listed as vitamin E) it was 2.4 mmol ferrous ion equivalent/g. Moreover, the “DPPH assay IC50” value in experiment [3] was 14.12 ± 0.9 µg/mL; in experiment [3] (listed as vitamin E) it was 14.1 µg/mL.
